# Test system: moderate-to-severe chronic spontaneous urticaria (CSU)
# Test: Phase 2 CSU study: urticaria activity score over 7 days (UAS7)
# Assay type: in vivo, human
# Set-up: key to UAS7 Median / UAS7 Change from baseline Median / UAS7 change from baseline, Q1 / UAS7 change from baseline, Q3 / UAS7 change from baseline, Max / UAS7 Change from baseline LS Mean (SE): UAS7 points; daily UAS score ranges 0–6 points/day, over 7 days
# Text: The study comprises a 12 week, randomized, double-blind, placebo-controlled, multi-center, dose-ranging efficacy and safety phase, followed by a 40 week open label extension (OLE) phase (see FIG. 1). The study consists of three phases and an optional OLE phase. […] Clinically, CSU is characterized by the spontaneous and recurrent appearance of pruritic hives. The proposed primary endpoints were the UAS7 at Week 12 in EU and EU reference countries and the ISS7 in the US. Regardless of where a participant was from, all assessments were the same. The UAS7 score is a composite score containing both the HSS7 and the ISS7. This allowed a global assessment of the two key components of urticaria: hives and itch. […] The UAS is a validated PRO measure. […] The daily UAS scores range from 0 to 6 point/day. […] Patients were to complete the UAS using the e-diary. […] The following secondary endpoints were to be analyzed using the same approach as for the primary endpoint: • Change from baseline in UAS7 at Week 4 • Change from baseline in UAS7 at Week 12 (for US and US reference countries) • Change from baseline in ISS7 at Week 12 (except US and US reference countries) • Change from baseline in HSS7 at Week 12 The following responder secondary endpoints were to be analyzed using the Cochran-Mantel-Haenszel test adjusted by region: • Proportion of participants with UAS7<6 at Week 12 • Proportion of participants with UAS7=0 at Week 12 Participants who received selected prohibited medications and/or rescue medications were to be considered as non-responders for time points after the medication usage. For other participants, all available data including those collected during the off-treatment period were to be used to determine the responder/non-responder status. Missing data were to be considered as non-responders.
# [1] = Week 9, 400 mg QPM, Prior Omalizumab Use
# [2] = Week 9, 400 mg QPM, omalizumab-naive participants
# [3] = Week 9, 400 mg TID, ITT population
# [4] = Week 9, 400 mg TID, Omalizumab-Naïve
# [5] = Week 9, 400 mg TID, Prior Omalizumab Use
# [6] = Week 9, 400 mg TID, omalizumab-naive participants
# [7] = Week 10, 400 mg BID, ITT population
# [8] = Week 10, 400 mg BID, Omalizumab-Naïve
# [9] = Week 10, 400 mg BID, Prior Omalizumab Use
# [10] = Week 10, 400 mg BID, omalizumab-naive participants
# [11] = Week 10, 400 mg QPM, ITT population
# [12] = Week 10, 400 mg QPM, Omalizumab-Naïve
# [13] = Week 10, 400 mg QPM, Prior Omalizumab Use
# [14] = Week 10, 400 mg QPM, omalizumab-naive participants
smiles,measurement,setting,value
"CC(C)(C=C(C#N)C(=O)N1CCC[C@@H](n2nc(-c3ccc(Oc4ccccc4)cc3F)c3c(N)ncnc32)C1)N1CCN(C2COC2)CC1 [rilzabrutinib, (R)-2-[3-[4-amino-3-(2-fluoro-4-phenoxy-phenyl)pyrazolo[3,4-d]pyrimidin-1-yl]piperidine-1-carbonyl]-4-methyl-4-[4-(oxetan-3-yl)piperazin-1-yl]pent-2-enenitrile]",UAS7 Change from baseline Mean (SD),[1],−23.00 (NC)
same,UAS7 Change from baseline Median,[1],−23.00
same,UAS7 Mean (SD),[1],18.00 (NC)
same,UAS7 Median,[1],18.00
same,UAS7 Percent change from baseline Mean (SD),[1],−56.10 (NC) %
same,UAS7 Percent change from baseline Median,[1],−56.10%
same,"Non-responder, UAS7 reduction from baseline of 10 points or more",[2],20 (54.1) n (%)
same,"OR for rilzabrutinib vs. placebo, UAS7 reduction of 10 points or more",[2],1.522
same,"RRD (%) for rilzabrutinib vs. placebo, UAS7 reduction of 10 points or more",[2],9.7 %
same,"Responder, UAS7 reduction from baseline of 10 points or more",[2],17 (45.9) n (%)
same,"Non-responder, UAS7 reduction from baseline of 10 points or more",[3],13 (31.7) n (%)
same,"OR for rilzabrutinib vs. placebo, UAS7 reduction of 10 points or more",[3],3.243
same,"RRD (%) for rilzabrutinib vs. placebo, UAS7 reduction of 10 points or more",[3],26.2 %
same,"Responder, UAS7 reduction from baseline of 10 points or more",[3],28 (68.3) n (%)
same,UAS7 Change from baseline Mean (SD),[4],−17.88 (11.04)
same,UAS7 Change from baseline Median,[4],−17.00
same,UAS7 Mean (SD),[4],12.57 (9.72)
same,UAS7 Percent change from baseline Mean (SD),[4],−57.42 (32.58) %
same,UAS7 Percent change from baseline Median,[4],−60.00%
same,UAS7 Change from baseline Median,[5],−24.92
same,UAS7 Median,[5],4.00
same,UAS7 Percent change from baseline Mean (SD),[5],−77.44 (25.29) %
same,UAS7 Percent change from baseline Median,[5],−85.78%
same,"Non-responder, UAS7 reduction from baseline of 10 points or more",[6],12 (34.3) n (%)
same,"OR for rilzabrutinib vs. placebo, UAS7 reduction of 10 points or more",[6],3.460
same,"RRD (%) for rilzabrutinib vs. placebo, UAS7 reduction of 10 points or more",[6],29.2 %
same,"Responder, UAS7 reduction from baseline of 10 points or more",[6],23 (65.7) n (%)
same,"Non-responder, UAS7 reduction from baseline of 10 points or more",[7],20 (48.8) n (%)
same,"RRD (%) for rilzabrutinib vs. placebo, UAS7 reduction of 10 points or more",[7],2.8 %
same,"Responder, UAS7 reduction from baseline of 10 points or more",[7],21 (51.2) n (%)
same,UAS7 Change from baseline Mean (SD),[8],−14.01 (11.59)
same,UAS7 Change from baseline Median,[8],−14.50
same,UAS7 Mean (SD),[8],15.22 (14.36)
same,UAS7 Median,[8],13.50
same,UAS7 Percent change from baseline Mean (SD),[8],−50.88 (41.19) %
same,UAS7 Percent change from baseline Median,[8],−51.79%
same,UAS7 Change from baseline Mean (SD),[9],−19.40 (18.66)
same,UAS7 Change from baseline Median,[9],−23.00
same,UAS7 Mean (SD),[9],12.60 (14.98)
same,UAS7 Median,[9],4.00
same,UAS7 Percent change from baseline Mean (SD),[9],−55.61 (51.03) %
same,UAS7 Percent change from baseline Median,[9],−85.19%
same,"Non-responder, UAS7 reduction from baseline of 10 points or more",[10],17 (48.6) n (%)
same,"OR for rilzabrutinib vs. placebo, UAS7 reduction of 10 points or more",[10],1.312
same,"RRD (%) for rilzabrutinib vs. placebo, UAS7 reduction of 10 points or more",[10],7.2 %
same,"Responder, UAS7 reduction from baseline of 10 points or more",[10],18 (51.4) n (%)
same,"Non-responder, UAS7 reduction from baseline of 10 points or more",[11],19 (50.0) n (%)
same,"OR for rilzabrutinib vs. placebo, UAS7 reduction of 10 points or more",[11],1.159
same,"RRD (%) for rilzabrutinib vs. placebo, UAS7 reduction of 10 points or more",[11],3.5 %
same,"Responder, UAS7 reduction from baseline of 10 points or more",[11],19 (50.0) n (%)
same,UAS7 Change from baseline Mean (SD),[12],−11.73 (10.20)
same,UAS7 Change from baseline Median,[12],−10.00
same,UAS7 Mean (SD),[12],20.27 (10.69)
same,UAS7 Median,[12],17.00
same,UAS7 Percent change from baseline Mean (SD),[12],−36.15 (29.79) %
same,UAS7 Percent change from baseline Median,[12],−36.70%
same,UAS7 Change from baseline Mean (SD),[13],−25.00 (NC)
same,UAS7 Change from baseline Median,[13],−25.00
same,UAS7 Mean (SD),[13],16.00 (NC)
same,UAS7 Median,[13],16.00
same,UAS7 Percent change from baseline Mean (SD),[13],−60.98 (NC) %
same,UAS7 Percent change from baseline Median,[13],−60.98%
same,"Non-responder, UAS7 reduction from baseline of 10 points or more",[14],19 (51.4) n (%)
same,"OR for rilzabrutinib vs. placebo, UAS7 reduction of 10 points or more",[14],1.190
same,"RRD (%) for rilzabrutinib vs. placebo, UAS7 reduction of 10 points or more",[14],4.1 %
same,"Responder, UAS7 reduction from baseline of 10 points or more",[14],18 (48.6) n (%)

# — patent US20260256792A1, “TREATMENT OF CHRONIC SPONTANEOUS URTICARIA BY ADMINISTERING (R)-2-[3-[4-AMINO-3-(2-FLUORO-4-PHENOXY-PHENYL)PYRAZOLO[3,4-D]PYRIMIDIN-1-YL]PIPERIDINE-1-CARBONYL]-4-METHYL-4-[4-(OXETAN-3-YL)PIPERAZIN-1-YL]PENT-2-ENENITRILE” (priority 2023, published 2026)
